Reference: ChEMBL document CHEMBL4043144, “Design, synthesis and evaluation of 2,2-dimethyl-1,3-dioxolane derivatives as human rhinovirus 3C protease inhibitors” (Bioorg Med Chem Lett, 2017)

Tests used:
[1] = Inhibition of recombinant N-terminal His-tagged HRV 3C protease expressed in Escherichia coli preincubated for 15 mins followed by LEVLFQGPSK substrate addition after 45 mins by reverse-phase HPLC analysis; design: species or system Human rhinovirus sp.
Human rhinovirus sp. [2] = experiment: Inhibition of recombinant N-terminal His-tagged HRV 3C protease expressed in Escherichia coli at 100 uM preincubated for 15 mins followed by LEVLFQGPSK substrate addition after 45 mins by reverse-phase HPLC analysis relative to control
Human rhinovirus sp. [3] = experiment: Inhibition of recombinant N-terminal His-tagged HRV 3C protease expressed in Escherichia coli at 10 uM preincubated for 15 mins followed by LEVLFQGPSK substrate addition after 45 mins by reverse-phase HPLC analysis relative to control

Row | Compound | IC50 [1] [µM] | inhibition (Human rhinovirus sp. [2]) [%] | inhibition (Human rhinovirus sp. [3]) [%]
1 | CC1(C)O[C@H](C(=O)Nc2nc3ccccc3s2)[C@@H](C(=O)N2CCN(Cc3ccccc3)CC2)O1 | > 10 | 56.4 | 20.8
2 | COc1cccc(NCCNC(=O)[C@H]2OC(C)(C)O[C@@H]2C(=O)Nc2nc3ccccc3s2)c1 | > 10 | 85.2 | 43.6
3 | Cc1cccc(CN2CCN(C(=O)[C@@H]3OC(C)(C)O[C@H]3C(=O)Nc3nc4ccccc4s3)CC2)c1 | > 10 | 78.7 | 20.2
4 | COc1cccc(NCCNC(=O)[C@@H]2OC(C)(C)O[C@H]2C(=O)Nc2ccc3ccccc3c2)c1 | > 10 | 80.6 | 44
5 | Cc1cccc(CN2CCN(C(=O)[C@H]3OC(C)(C)O[C@@H]3C(=O)Nc3nc4ccccc4s3)CC2)c1 | > 10 | 85.3 | 34.3
6 | COc1cccc(NCCNC(=O)[C@@H]2OC(C)(C)O[C@H]2C(=O)Nc2nc3ccccc3s2)c1 | 8.28 | 99.9 | 62.2

The remaining lines, values ahead:

Row | IC50 [1] [µM] | inhibition (Human rhinovirus sp. [2]) [%] | inhibition (Human rhinovirus sp. [3]) [%] | Compound
7 | > 10 | 67.8 | 17.5 | CC1(C)O[C@H](C(=O)Nc2nc3ccccc3s2)[C@@H](C(=O)N2CCN(c3ccccc3)CC2)O1
8 | 8.57 | 100 | 69 | CC1(C)O[C@@H](C(=O)Nc2nc3ccccc3s2)[C@H](C(=O)N2CCN(c3ccccc3)CC2)O1
9 | > 10 | 82.5 | 10.8 | CC1(C)O[C@H](C(=O)Nc2nc3ccccc3s2)[C@@H](C(=O)N2CCN(c3ccccn3)CC2)O1
10 | 10.6 | 97.8 | 64.4 | CC1(C)O[C@@H](C(=O)Nc2nc3ccccc3s2)[C@H](C(=O)N2CCN(c3ccccn3)CC2)O1
11 | > 10 | 85.5 | 18.8 | CC1(C)O[C@@H](C(=O)Nc2nc3ccccc3s2)[C@H](C(=O)N2CCN(Cc3ccccc3)CC2)O1
12 | > 10 | 84.2 | 48.1 | CC1(C)O[C@H](C(=O)Nc2nc3ccccc3s2)[C@@H](C(=O)N2CCN(c3ccccc3C#N)CC2)O1
13 | 2.5 | 100 | 86 | CC1(C)O[C@@H](C(=O)Nc2nc3ccccc3s2)[C@H](C(=O)N2CCN(c3ccccc3C#N)CC2)O1
